Source: US7741327B2 (Hoffmann-La Roche Inc., priority 2008, dated 2010)

Each molecule was assayed against T1, Recombinant human liver GK1 (GST-GK) (Homo sapiens, UniProt P35557) (assay: In vitro glucokinase activity (G6PDH-coupled NADH assay)). Settings: 30° C., 5 mM D-glucose, 10% DMSO.
T1 construct: made in house; host or cells: E. coli
T1 sequence (P35557 1-466 isoform P35557-2): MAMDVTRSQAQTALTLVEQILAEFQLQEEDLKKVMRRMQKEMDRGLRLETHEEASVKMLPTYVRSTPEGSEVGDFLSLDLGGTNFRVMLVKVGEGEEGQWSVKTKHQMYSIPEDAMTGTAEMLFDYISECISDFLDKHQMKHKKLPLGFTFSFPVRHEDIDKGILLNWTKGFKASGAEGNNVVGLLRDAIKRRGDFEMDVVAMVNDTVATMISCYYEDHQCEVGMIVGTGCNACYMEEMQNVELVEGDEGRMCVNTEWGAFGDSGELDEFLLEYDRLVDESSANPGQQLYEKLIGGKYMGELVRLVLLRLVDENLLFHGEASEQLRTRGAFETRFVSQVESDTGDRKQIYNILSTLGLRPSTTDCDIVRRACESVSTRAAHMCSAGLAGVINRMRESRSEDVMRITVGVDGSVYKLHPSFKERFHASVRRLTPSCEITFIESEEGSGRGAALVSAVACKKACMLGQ
Type: biochemical
How it was run: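 GST-tagged human liver GK1 from E. coli, assayed at 30° C in 25 mM Hepes pH 7.1 with 5 mM D-glucose, 1 mM ATP, 1.8 mM NAD and G6PDH coupling, 10% DMSO final; reaction started with enzyme after 10 min preincubation. NADH formation followed at OD340; SC1.5 is activator concentration giving 50% increase over DMSO control rate.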

Row | SMILES | SC1.5 (concentration of activator that produced a 50% increase in the activity of GK) [µM]
1 | CCOc1ccccc1OC1=CC(=O)N([C@@H](CC(C)C)C(=O)Nc2ccn(C[C@@H](O)CO)n2)C1.Cl [Example 84, (S)-2-[4-(2-Ethoxy-phenoxy)-2-oxo-2,5-dihydro-pyrrol-1-yl]-4-methyl-pentanoic acid [1-((R)-2,3-dihydroxy-propyl)-1H-pyrazol-3-yl]-amide Hydrochloride] | 1.312
2 | COc1ccc(F)c(OC2=CC(=O)N([C@@H](CC(C)C)C(=O)Nc3ccn(C[C@@H]4COC(C)(C)O4)n3)C2)c1F [Example 118, (S)-2-[4-(2,6-Difluoro-3-methoxy-phenoxy)-2-oxo-2,5-dihydro-pyrrol-1-yl]-4-methyl-pentanoic acid [1-((R)-2,2-dimethyl-[1,3]dioxolan-4-yl-methyl)-1H-pyrazol-3-yl]-amide] | 0.256
3 | COC[C@H](C)OC1=CC(=O)N([C@@H](CC2CCCC2)C(=O)Nc2ccn(CC(C)(C)O)n2)C1 [Example 13, (S)-3-Cyclopentyl-N-[1-(2-hydroxy-2-methyl-propyl)-1H-pyrazol-3-yl]-2-[4-((S)-2-methoxy-1-methyl-ethoxy)-2-oxo-2,5-dihydro-pyrrol-1-yl]-propionamide] | 4.062
4 | COc1cccc(OC2=CC(=O)N(C(CC3CCOCC3)C(=O)Nc3ccn(CC(C)(C)O)n3)C2)c1Cl (stereo not shown) [Example 50, 2-[4-(2-Chloro-3-methoxy-phenoxy)-2-oxo-2,5-dihydro-pyrrol-1-yl]-N-[1-(2-hydroxy-2-methyl-propyl)-1H-pyrazol-3-yl]-3-(tetrahydro-pyran-4-yl)-propionamide] | 0.033
5 | CC(C)(O)Cn1ccc(NC(=O)C(Cc2c(F)cccc2F)N2CC(Oc3c(F)cccc3F)=CC2=O)n1 (stereo not shown) [Example 59, 2-[4-(2,6-Difluoro-phenoxy)-2-oxo-2,5-dihydro-pyrrol-1-yl]-3-(2,6-difluoro-phenyl)-N-[1-(2-hydroxy-2-methyl-propyl)-1-H-pyrazol-3-yl]-propionamide] | 1.082
6 | CC(C)C[C@@H](C(=O)Nc1ccn(CC(C)(C)O)n1)N1CC(Oc2ccccc2F)=CC1=O [Example 167, (S)-2-[4-(2-Fluoro-phenoxy)-2-oxo-2,5-dihydro-pyrrol-1-yl]-4-methyl-pentanoic acid [1-(2-hydroxy-2-methyl-propyl)-1H-pyrazol-3-yl]-amide] | 0.206
7 | CC(C)C[C@@H](C(=O)Nc1cnccn1)N1CC(Oc2ccc(C[C@H](O)CO)cc2)=CC1=O [Example 244, (S)-2-{4-[4-((S)-2,3-Dihydroxy-propyl)-phenoxy]-2-oxo-2,5-dihydro-pyrrol-1-yl}-4-methyl-pentanoic acid pyrazin-2-ylamide] | 0.158
8 | COc1ccccc1OC1=CC(=O)N(C(COC(C)(C)C)C(=O)Nc2ccn(CC(C)(C)O)n2)C1 (stereo not shown) [Example 35, 3-t-Butoxy-N-[1-(2-hydroxy-2-methyl-propyl)-1H-pyrazol-3-yl]-2-[4-(2-methoxy-phenoxy)-2-oxo-2,5-dihydro-pyrrol-1-yl]-propionamide] | 9.491
9 | CCOc1ccccc1OC1=CC(=O)N([C@@H](CC(C)C)C(=O)Nc2ccn(CC(C)(C)O)n2)C1.Cl [Example 81, (S)-2-[4-(2-ethoxy-phenoxy)-2-oxo-2,5-dihydro-pyrrol-1-yl]-4-methyl pentanoic acid [1-(2-hydroxy-2-methyl-propyl)-1H-pyrazol-3-yl]-amide hydrochloride] | 0.932
10 | CC(C)OC1=CC(=O)N([C@@H](CC2CCCC2)C(=O)Nc2cnccn2)C1 [Example 23, (S)-3-Cyclopentyl-N-(pyrazin-2-yl)-2-(4-isopropoxy-2-oxo-2,5-dihydro-pyrrol-1-yl)-propionamide] | 5.216
11 | CCOc1ccc(F)c(OC2=CC(=O)N([C@@H](CC3CCOCC3)C(=O)Nc3ccn(CC(C)(C)O)n3)C2)c1F (single isomer, unassigned) [Example 257] | 0.006
12 | COC(=O)c1ccc(NC(=O)[C@H](CC2CCCCC2)N2CC(Oc3c(F)cccc3Cl)=CC2=O)nc1 [Example 69, 6-{(S)-2-[4-(2-Chloro-6-fluoro-phenoxy)-2-oxo-2,5-dihydro-pyrrol-1-yl]-3-cyclohexyl-propionylamino}-nicotinic acid methyl ester] | 0.047
13 | CC(C)(O)Cn1ccc(NC(=O)[C@H](CC2CCCCC2)N2CC(Oc3cccc(Br)c3)=CC2=O)n1 [Example 205, (S)-2-[4-(3-bromo-phenoxy)-2-oxo-2,5-dihydro-pyrrol-1-yl]-3-cyclohexyl-N-[1-(2-hydroxy-2-methyl-propyl)-1H-pyrazol-3-yl]-propionamide] | 0.021
14 | CC(C)(O)Cn1ccc(NC(=O)[C@H](CC2CCCCC2)N2CC(Oc3cccc(C(F)(F)F)c3)=CC2=O)n1 [Example 209, (S)-3-cyclohexyl-N-[1-(2-hydroxy-2-methyl-propyl)-1H-pyrazol-3-yl]-2-[2-oxo-4-(3-trifluoromethyl-phenoxy)-2,5-dihydro-pyrrol-1-yl]-propionamide] | 0.076
15 | CC(C)(O)Cn1ccc(NC(=O)C(Cc2c(Cl)cccc2Cl)N2CC(Oc3c(F)cccc3F)=CC2=O)n1 (stereo not shown) [Example 225, 3-(2,6-Dichloro-phenyl)-2-[4-(2,6-difluoro-phenoxy)-2-oxo-2,5-dihydro-pyrrol-1-yl]-N-[1-(2-hydroxy-2-methyl-propyl)-1H-pyrazol-3-yl]-propionamide] | > 30
16 | CC(C)C[C@@H](C(=O)Nc1ccn(C[C@@H]2COC(C)(C)O2)n1)N1CC(Oc2cccc(Cl)c2Cl)=CC1=O [Example 79, (S)-2-[4-(2,3-Dichloro-phenoxy)-2-oxo-2,5-dihydro-pyrrol-1-yl]-4-methyl-pentanoic acid [1-((R)-2,2-dimethyl-[1,3]dioxolan-4-yl-methyl)-1H-pyrazol-3-yl]-amide] | 0.682
17 | COC(=O)c1ccc(NC(=O)[C@H](CC(C)C)N2CC(Oc3c(F)cccc3F)=CC2=O)nc1 [Example 46, 6-{(S)-2-[4-(2,6-difluoro-phenoxy)-2-oxo-2,5-dihydro-pyrrol-1-yl]-4-methyl-pentanoylamino}-nicotinic acid methyl ester] | 0.097
18 | COc1cccc(OC2=CC(=O)N([C@@H](CC3CCCCC3)C(=O)Nc3ccn(CC(C)(C)O)n3)C2)c1OC [Example 199, (S)-3-cyclohexyl-2-[4-(2,3-dimethoxy-phenoxy)-2-oxo-2,5-dihydro-pyrrol-1-yl]-N-[1-(2-hydroxy-2-methyl-propyl)-1H-pyrazol-3-yl]-propionamide] | 0.07
19 | Cc1cccc(OC2=CC(=O)N([C@@H](CC(C)C)C(=O)Nc3ccn(C[C@@H]4COC(C)(C)O4)n3)C2)c1F [Example 130, (S)-2-[4-(2-Fluoro-3-methyl-phenoxy)-2-oxo-2,5-dihydro-pyrrol-1-yl]-4-methyl-pentanoic acid [1-((R)-2,2-dimethyl-[1,3]dioxolan-4-yl-methyl)-1H-pyrazol-3-yl]-amide] | 0.26
20 | CC(C)(O)Cn1ccc(NC(=O)[C@H](CC2CCCCC2)N2CC(Oc3c(F)cccc3F)=CC2=O)n1 [Example 36, (S)-3-Cyclohexyl-2-[4-(2,6-difluoro-phenoxy)-2-oxo-2,5-dihydro-pyrrol-1-yl]-N-[1-(2-hydroxy-2-methyl-propyl)-1H-pyrazol-3-yl]-propionamide] | 0.028
21 | CSCC[C@@H](C(=O)Nc1ccn(C[C@@H](O)CO)n1)N1CC(Oc2ccccc2Cl)=CC1=O [Example 223, (S)-2-[4-(2-Chloro-phenoxy)-2-oxo-2,5-dihydro-pyrrol-1-yl]-N-[1-((R)-2,3-dihydroxy-propyl)-1H-pyrazol-3-yl]-4-methylsulfanyl-butyramide] | 0.303
22 | CC[C@@H](C)C[C@H](C(=O)Nc1ccn(C[C@@H](O)CO)n1)N1CC(Oc2ccccc2Cl)=CC1=O (single isomer, unassigned) [Example 254] | 16.154
23 | CC(=O)Cc1nsc(NC(=O)[C@H](CC(C)C)N2CC(Oc3ccccc3Cl)=CC2=O)n1 [Example 113, (S)-2-[4-(2-Chloro-phenoxy)-2-oxo-2,5-dihydro-pyrrol-1-yl]-4-methyl-pentanoic acid [3-(2-oxo-propyl)-[1,2,4]thiadiazol-5-yl]-amide] | 1.737
24 | Cn1ccc(NC(=O)[C@H](CC2CCCCC2)N2CC(Oc3c(F)cccc3Cl)=CC2=O)n1 [Example 68, (S)-2-[4-(2-Chloro-6-fluoro-phenoxy)-2-oxo-2,5-dihydro-pyrrol-1-yl]-3-cyclohexyl-N-(1-methyl-1H-pyrazol-3-yl)-propionamide] | 0.055

Same assay, conditions: at 30 μM test compound

Row | SMILES | fold act. @ 30 μM [fold]
25 | CC(C)(O)Cn1ccc(NC(=O)C(Cc2c(Cl)cccc2Cl)N2CC(Oc3c(F)cccc3F)=CC2=O)n1 (stereo not shown) [Example 225, 3-(2,6-Dichloro-phenyl)-2-[4-(2,6-difluoro-phenoxy)-2-oxo-2,5-dihydro-pyrrol-1-yl]-N-[1-(2-hydroxy-2-methyl-propyl)-1H-pyrazol-3-yl]-propionamide] | 1.4
